We go through one compound from ChEMBL document CHEMBL6109104, “Synthesis and antibacterial evaluations of novel vancomycin analogues targeting bacteria membrane to combat Gram-negative infections” (Eur J Med Chem, 2025).

The subject of data set [1] is Cell membrane. The data set can be described thus: Disruption of cell membrane in Acinetobacter baumannii ATCC17978 assessed as increase in DNA leakage incubated for 4 hrs by microspectrophotometer analysis.
Data set [2] deals with Staphylococcus aureus. The data set can be described thus: Antibacterial activity vancomycin-intermediate resistant Staphylococcus aureus incubated for 16 to 18 hrs by muller hinton broth based microplate reader analysis. Conditions: time 16-18 hrs. The data set is classed as functional.
Data set [3] is described as follows: Hemolytic activity in sheep RBC at 64 ug/ml incubated for 1 hrs by absorbance based analysis. In kind it is toxicity, cell-based, Ovis aries. The note with it: erythrocyte, dose 64 µg/ml.
A short description of data set [4]: Toxicity in Kunming mouse infected with Acinetobacter baumannii ATCC17978 assessed as changed in body weight at 10 to 20 mg/kg. Conditions: in vivo, dose 10-20 mg/kg. The data set is classed as organism-based.
The subject of data set [5] is Cell membrane. Nature of the data set: Disruption of cell membrane in Acinetobacter baumannii ATCC17978 assessed as increase in protein leakage incubated for 4 hrs by BCA assay.
The test system of data set [6] is Acinetobacter baumannii. Nature of the data set: Antibacterial activity against Acinetobacter baumannii ATCC19606 incubated for 16 to 18 hrs by muller hinton broth based microplate reader analysis. The data set is classed as functional. The note with it: time 16-18 hrs.
The subject of data set [7] is HEK-293T. Nature of the data set: Cytotoxicity against HEK293T cells at 64 ug/ml incubated for 72 hrs by MTT assay. Conditions: human, dose 64 µg/ml. The data set is classed as toxicity, cell-based. Background: Tetrazolium assays rely on reduction of a dye to a coloured formazan, in cell work by metabolically active cells.
Data set [8] relates to Acinetobacter baumannii. The data set can be described thus: Antibacterial activity against Acinetobacter baumannii ATCC17978 assessed as bactericidal rate by measuring bacterial count incubated for 6 hrs by muller-hinton agar based time-kill kinetics assay. The data set is classed as functional, organism-based.
Data set [9] relates to Cell membrane. The data set can be described thus: Induction of cell membrane disruption in Acinetobacter baumannii ATCC17978 assessed as increase in ROS level incubated for 30 mins by DCFH-DA probe based microplate reader analysis.
The test system of data set [10] is Escherichia coli. The data set can be described thus: Antibacterial activity against Escherichia coli ATCC25922 incubated for 16 to 18 hrs by muller hinton broth based microplate reader analysis. In kind it is functional. Conditions: time 16-18 hrs.
The subject of data set [11] is Cell membrane. Nature of the data set: Induction of cytoplasmic membrane permeabilization in Acinetobacter baumannii ATCC17978 assessed as increase in fluorescence intensity at 16 times MIC incubated for 10 mins by SYTOX green assay.
Data set [12] relates to Acinetobacter baumannii. The data set can be described thus: Antibacterial activity against Acinetobacter baumannii ATCC17978 assessed as bactericidal rate by measuring bacterial count at 4 times MIC incubated for 4 hrs by muller-hinton agar based time-kill kinetics assay relative to control. The data set is classed as functional.
In data set [13] the test system is Staphylococcus aureus. Nature of the data set: Antibacterial activity against methicillin-resistant Staphylococcus aureus USA300 incubated for 16 to 18 hrs by muller hinton broth based microplate reader analysis. The data set is classed as functional. The note with it: time 16-18 hrs.
For data set [14], the system named is Acinetobacter baumannii. The data set can be described thus: Antibacterial activity against Acinetobacter baumannii ATCC17978 incubated for 12 hrs and measured after 20 passages. In kind it is functional, organism-based.
Data set [15] concerns Escherichia coli. The data set can be described thus: Antibacterial activity against Escherichia coli ATCC35150 incubated for 16 to 18 hrs by muller hinton broth based microplate reader analysis. The data set is classed as functional. Conditions: time 16-18 hrs.
Data set [16] deals with Acinetobacter baumannii. Nature of the data set: Antibacterial activity against Acinetobacter baumannii ATCC17978 incubated for 16 to 18 hrs by muller hinton broth based microplate reader analysis. The data set is classed as functional. Conditions: time 16-18 hrs.
The test system of data set [17] is Acinetobacter baumannii. Nature of the data set: Antibacterial activity against Acinetobacter baumannii ATCC17978 infected in neutropenic thigh infection Kunming mouse model assessed as reduction in bacterial load in thigh at 10 to 20 mg/kg, sc pretreated with bacteria for 2 hrs followed by compound addition and measured after 16 hrs. The note with it: dose 10-20 mg/kg. In kind it is functional, organism-based.

For data set [18], the system named is Acinetobacter baumannii. The data set can be described thus: Antibacterial activity against Acinetobacter baumannii ATCC17978 assessed as bactericidal rate by measuring bacterial count at 8 times MIC incubated for 4 hrs by muller-hinton agar based time-kill kinetics assay. The data set is classed as functional, organism-based.

Calls of active or inactive are those of the source.

A word on the MIC: it is the smallest concentration in the dilution series that meets the test's criterion for growth inhibition. Higher therefore signals weaker potency.

As for `CCCCCCCCCCCC[N+]1(C)CCN(C(=O)[C@H]2NC(=O)[C@H]3NC(=O)[C@H](NC(=O)[C@@H]4NC(=O)[C@H](CC(N)=O)NC(=O)[C@H](NC(=O)[C@@H](CC(C)C)NC)[C@H](O)c5ccc(c(Cl)c5)Oc5cc4cc(c5O[C@@H]4O[C@H](CO)[C@@H](O)[C@H](O)[C@H]4O[C@H]4C[C@](C)(N)[C@H](O)[C@H](C)O4)Oc4ccc(cc4Cl)[C@H]3O)c3ccc(O)c(c3)-c3c(O)cc(O)cc32)CC1.[Br-]` (stereo in doubt), the Activity entry is “Dose-dependent-effect” in [1]; “Toxic” in data set [3]; “Non-toxic” in data set [4]; “Dose-dependent-effect” in data set [5]; “Non-toxic” in data set [7]; “Dose-dependent-effect” in data set [8]. In [12], the Activity is 100%. Moreover, the MIC in data set [2] turned out to be 8 µg/mL; in data set [6] it was 16 µg/mL; in data set [10] it was 16 µg/mL; in data set [13], 1 µg/mL; in data set [15], 16 µg/mL; in [16] it was 8 µg/mL. The outcome in data set [9], in [11], in [14] and in data set [17] was Active. Besides, the result in data set [18] was inactive.
